For test [1], the system named is Smad2/Smad3 phosphorylation. Nature of the test: Phospho-Smad2/3 Inhibition Assay (western blot), Panc-1. The conditions noted are these: at 10 μM, Panc-1 pancreatic cancer cell line; starred symbols = activation. The class given is cell-based, human. In a few lines: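 Panc-1 cells (KRas G12D), starved overnight in 0.5% FBS, treated 3 h at 37° C with compound at 10 μM final (0.3% DMSO) or serial dilutions for IC50, then stimulated with 10 ng/ml TGF-b1 for 1 h. Phospho-Smad2 (Ser465/467) and phospho-Smad3 (Ser423/425) detected by western blot.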
In general terms: Immunoblotting shows a protein as a band on a membrane.

Test [2] concerns MiaPaca-2 (expressing KRAS G12C mutant). Nature of the test: Proliferation Assay (Cell Viability Assay). The class given is cell-based. The conditions noted are these: Homo sapiens, MIA PaCa-2. In a few lines:
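MiaPaca-2 cells (KRAS G12C) were grown in DMEM-high glucose with 10% FBS, seeded at 2000–5000 cells/well and cultured overnight. Compounds were added at 10 μM final, or as serial dilutions for IC50, in 0.3% DMSO/10% FBS for 2–4 days at 37 °C, 5% CO2. Viability was measured with CellTiter 96 Aqueous One and % inhibition calculated.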

Where [3] appears, read: read-out: Proliferation in MiaPaca-2: IC50.

Like-named read-outs stand apart in the source and are kept apart here.

With `CO[C@H]1C[C@@H](Nc2nc(-c3nccn3C)nn3cc(-c4ccn(C)n4)c(C)c23)C1` [Compound 131, N-((1s,3s)-3-Methoxycyclobutyl)-5-methyl-2-(1-methyl-1H-imidazol-2-yl)-6-(1-methyl-1H-pyrazol-3-yl)pyrrolo[2,1-f][1,2,4]triazin-4-amine], the “% inh of Smad2/3 phosphorylation in Panc-1” value (from here on “% inh”) in test [1] is listed as 0 (0 = 0% inhibition). Further, the IC50 in test [2] (setting [3]) was over 1000 nM.

As to `CO[C@@H]1CC[C@@H](Nc2nc(-c3nccn3C)nn3cc(-c4cccnc4)c(C)c23)C1` (racemic) [Compound 154, rac N-((1R,3R)-3-methoxy-cyclopentyl)-5-methyl-2-(1-methyl-1H-imidazol-2-yl)-6-(pyridin-3-yl)pyrrolo[2,1-f][1,2,4]triazin-4-amine], the “% inh” value in test [1] is “C (C = 46-75% inhibition)”. In addition, in test [2] (setting [3]), the IC50 is over 1000 nM.

`COc1cnc(Nc2nc(-c3nccn3C)nn3cc(-c4ccn(C)n4)c(C)c23)nc1.Cl` [Compound 117, N-(5-Methoxypyrimidin-2-yl)-5-methyl-2-(1-methyl-1H-imidazol-2-yl)-6-(1-methyl-1H-pyrazol-3-yl)pyrrolo[2,1-f][1,2,4]triazin-4-amine hydrochloride salt]: the “% inh” value in test [1] is on record as “A (A = 1-25% inhibition)”. For the same molecule, the IC50 in test [2] (setting [3]) was under 150 nM.

For `Cc1c(-c2ccn(C)n2)cn2nc(-c3nccn3C)nc(Nc3ccncn3)c12.Cl` [Compound 116, 5-Methyl-2-(1-methyl-1H-imidazol-2-yl)-6-(1-methyl-1H-pyrazol-3-yl)-N-(pyrimidin-4-yl)pyrrolo[2,1-f][1,2,4]triazin-4-amine hydrochloride salt], the “% inh” value in test [1] was “D (D = 76-100% inhibition)”. Moreover, the IC50 in test [2] (setting [3]) was under 150 nM.

With `Cc1c(-c2ccn(C)n2)cn2nc(-c3nccn3C)nc(Nc3nccc(OCCN(C)C)n3)c12` [Compound 105, N-(4-(2-(Dimethylamino)ethoxy)pyrimidin-2-yl)-5-methyl-2-(1-methyl-1H-imidazol-2-yl)-6-(1-methyl-1H-pyrazol-3-yl)pyrrolo[2,1-f][1,2,4]triazin-4-amine], the “% inh” value in test [1] is listed as “A (A = 1-25% inhibition)”. The IC50 in test [2] (setting [3]) was in the range of 510 to 1000 nM.

Consider `COCCOc1cc(Nc2nc(-c3nccn3C)nn3cc(-c4ccn(C(C)C)n4)c(C)c23)ncn1` [Compound 122, 6-(1-Isopropyl-1H-pyrazol-3-yl)-N-(6-(2-methoxyethoxy)pyrimidin-4-yl)-5-methyl-2-(1-methyl-1H-imidazol-2-yl)pyrrolo[2,1-f][1,2,4]triazin-4-amine], for which, in test [1], the “% inh” value was “C (C = 46-75% inhibition)”. For the same molecule, the IC50 in test [2] (setting [3]) was under 150 nM.

Turning to `Cc1c(-c2ccn(C3CC3)n2)cn2nc(-c3nccn3C)nc(Nc3cc(OCCO)ccn3)c12` [Compound 146, 2-((2-((6-(1-Cyclopropyl-1H-pyrazol-3-yl)-5-methyl-2-(1-methyl-1H-imidazol-2-yl)pyrrolo[2,1-f][1,2,4]triazin-4-yl)amino)pyridin-4-yl)oxy)ethan-1-ol], in test [1], the “% inh” value is recorded as “C (C = 46-75% inhibition)”. Moreover, the IC50 in test [2] (setting [3]) was in the range of 150 to 500 nM.

For `COc1cc(-c2cn3nc(-c4nccn4C)nc(N[C@@H]4CC[C@H](OC)C4)c3c2C)ccn1` (racemic) [Compound 164, rac N-((1R,3S)-3-Methoxycyclopentyl)-6-(2-methoxypyridin-4-yl)-5-methyl-2-(1-methyl-1H-imidazol-2-yl)pyrrolo[2,1-f][1,2,4]triazin-4-amine], the “% inh” value in test [1] is reported as “A* (A* = 1-25% activation)”. In addition, in test [2] (setting [3]), the IC50 was over 1000 nM.

In the case of `CO[C@H]1CC[C@@H](Nc2nc(-c3nccn3C)nn3cc(-c4cccnc4)c(C)c23)C1` (racemic) [Compound 155, rac N-((1R,3S)-3-methoxy-cyclopentyl)-5-methyl-2-(1-methyl-1H-imidazol-2-yl)-6-(pyridin-3-yl)pyrrolo[2,1-f][1,2,4]triazin-4-amine], in test [1], the “% inh” value is “A (A = 1-25% inhibition)”. Moreover, in test [2] (setting [3]), the IC50 is over 1000 nM.

Consider `COc1cc(-c2cn3nc(-c4nccn4C)nc(N[C@H]4C[C@@H](OC)C4)c3c2C)ccn1` [Compound 162, N-((1s,3s)-3-Methoxycyclobutyl)-6-(2-methoxypyridin-4-yl)-5-methyl-2-(1-methyl-1H-imidazol-2-yl)pyrrolo[2,1-f][1,2,4]triazin-4-amine], for which the “% inh” value in test [1] is listed as “A (A = 1-25% inhibition)”. In addition, in test [2] (setting [3]), the IC50 is over 1000 nM.

As for `Cc1c(-c2ccn(C3CC3)n2)cn2nc(-c3nccn3C)nc(Nc3ccccn3)c12` [Compound 143, 6-(1-Cyclopropyl-1H-pyrazol-3-yl)-5-methyl-2-(1-methyl-1H-imidazol-2-yl)-N-(pyridin-2-yl)pyrrolo[2,1-f][1,2,4]triazin-4-amine], the “% inh” value in test [1] is reported as “A (A = 1-25% inhibition)”. Also, the IC50 in test [2] (setting [3]) was under 150 nM.

For the molecule `CO[C@H]1C[C@H](Nc2nc(-c3nccn3C)nn3cc(-c4cccnc4)c(-c4ccccn4)c23)C1` [Compound 168, N-((1r,3r)-3-Methoxycyclobutyl)-2-(1-methyl-1H-imidazol-2-yl)-5-(pyridin-2-yl)-6-(pyridin-3-yl)pyrrolo[2,1-f][1,2,4]triazin-4-amine], the “% inh” value in test [1] is “A* (A* = 1-25% activation)”. Also, in test [2] (setting [3]), the IC50 was over 1000 nM.

For `Cc1c(-c2ccn(C3CC3)n2)cn2nc(-c3nccn3C)nc(Nc3cc(OCC(F)(F)F)ccn3)c12` [Compound 140, 6-(1-Cyclopropyl-1H-pyrazol-3-yl)-5-methyl-2-(1-methyl-1H-imidazol-2-yl)-N-(4-(2,2,2-trifluoroethoxy)pyridin-2-yl)pyrrolo[2,1-f][1,2,4]triazin-4-amine], the “% inh” value in test [1] is reported as “A (A = 1-25% inhibition)”. The IC50 in test [2] (setting [3]) was under 150 nM.

For `CO[C@H]1CC[C@@H](Nc2nc(-c3ccccn3)nn3cc(-c4ccn(C(C)C)n4)c(C)c23)C1` (racemic) [Compound 9, rac 6-(1-Isopropyl-1H-pyrazol-3-yl)-N-((1R,3S)-3-methoxycyclopentyl)-5-methyl-2-(pyridin-2-yl)pyrrolo[2,1-f][1,2,4]triazin-4-amine], the “% inh” value in test [1] is 0 (0 = 0% inhibition). Besides, the IC50 in test [2] (setting [3]) was over 1000 nM.

In the case of `COc1ccnc(Nc2nc(-c3nccn3C)nn3cc(-c4ccn(C(F)F)n4)c(C)c23)n1` [Compound 95, 6-(1-(Difluoromethyl)-1H-pyrazol-3-yl)-N-(4-methoxypyrimidin-2-yl)-5-methyl-2-(1-methyl-1H-imidazol-2-yl)pyrrolo[2,1-f][1,2,4]triazin-4-amine], the “% inh” value in test [1] is recorded as “C* (C* = 46-75% activation)”. Also, in test [2] (setting [3]), the IC50 was under 150 nM.

Regarding `Cc1c(-c2ccn(C)n2)cn2nc(-c3nccn3C)nc(Nc3nnco3)c12.Cl` [Compound 119, N-(5-Methyl-2-(1-methyl-1H-imidazol-2-yl)-6-(1-methyl-1H-pyrazol-3-yl)pyrrolo[2,1-f][1,2,4]triazin-4-yl)-1,3,4-oxadiazol-2-amine hydrochloride salt], the “% inh” value in test [1] is listed as “B* (B* = 26-45% activation)”. The IC50 in test [2] (setting [3]) was 510 to 1000 nM.

`COc1ccnc(Nc2nc(-c3nccn3C)nn3cc(-c4cccnc4)c(C)c23)n1` [Compound 158, N-(4-Methoxy-pyrimidin-2-yl)-5-methyl-2-(1-methyl-1H-imidazol-2-yl)-6-(pyridin-3-yl)pyrrolo[2,1-f][1,2,4]triazin-4-amine]: the “% inh” value in test [1] is on record as “B* (B* = 26-45% activation)”. Moreover, the IC50 in test [2] (setting [3]) is under 150 nM.

Regarding `Cc1c(-c2ccn(C)n2)cn2nc(-c3nccn3C)nc(Nc3cc(C4CC4)[nH]n3)c12` [Compound 104, N-(5-Cyclopropyl-1H-pyrazol-3-yl)-5-methyl-2-(1-methyl-1H-imidazol-2-yl)-6-(1-methyl-1H-pyrazol-3-yl)pyrrolo[2,1-f][1,2,4]triazin-4-amine], the “% inh” value in test [1] is “D* (D* = 76-100% activation)”. Moreover, the IC50 in test [2] (Proliferation assay, MiaPaca-2, read-out: MiaPaca-2 IC50 (nM) Pancreatic) was 1 to 10 nM; in test [2] (setting [3]), under 150 nM.

Take `COc1cccnc1Nc1nc(-c2nccn2C)nn2cc(-c3ccn(C)n3)c(C)c12` [Compound 112, N-(3-Methoxypyridin-2-yl)-5-methyl-2-(1-methyl-1H-imidazol-2-yl)-6-(1-methyl-1H-pyrazol-3-yl)pyrrolo[2,1-f][1,2,4]triazin-4-amine]: the “% inh” value in test [1] is given as “D* (D* = 76-100% activation)”. Also, the IC50 in test [2] (setting [3]) is under 150 nM.

Regarding `COCCO[C@H]1C[C@H](Nc2nc(-c3nccn3C)nn3cc(-c4cccnc4)c(C)c23)C1` [Compound 152, N-((1r,3r)-3-(2-methoxyethoxy)cyclo-butyl)-5-methyl-2-(1-methyl-1H-imidazol-2-yl)-6-(pyridin-3-yl)pyrrolo[2,1-f][1,2,4]triazin-4-amine], the “% inh” value in test [1] is reported as “A (A = 1-25% inhibition)”. Further, the IC50 in test [2] (setting [3]) is over 1000 nM.

With `Cc1c(-c2ccn(C)n2)cn2nc(-c3nccn3C)nc(Nc3cn(C(C)C)nn3)c12` [Compound 109, N-(1-Isopropyl-1H-1,2,3-triazol-4-yl)-5-methyl-2-(1-methyl-1H-imidazol-2-yl)-6-(1-methyl-1H-pyrazol-3-yl)pyrrolo[2,1-f][1,2,4]triazin-4-amine], the “% inh” value in test [1] is “D* (D* = 76-100% activation)”. Also, the IC50 in test [2] (setting [3]) was in the range of 510 to 1000 nM.

The values above are taken from patent publication US12459951B2, “Compounds that interact with RAS superfamily proteins for treatment of cancers, inflammatory diseases, rasopathies, and fibrotic disease” (SHY Therapeutics, LLC, priority 2022, dated 2025).
